Measured values as given in ChEMBL document CHEMBL2203214, “Polyether ionophores-promising bioactive molecules for cancer therapy” (Bioorg Med Chem Lett, 2012).
Values after ≈ are worked out from the molar mass of the structure shown.

Columns and labels:
[1] = Antiproliferative activity against human SCC cells assessed as non-viable cell level; assay type: functional
[2] = Cell cycle arrest in human SCC cells assessed as accumulation at G1/G0 phase after 24 hrs relative to control; assay type: functional, cell-based
MDR [3] = assay: Inhibition of MDR in human KB-C4 cells assessed as increase of vinblastine accumulation preincubated for 30 mins before vinblastine addition measured after drug washout relative to control; assay type: cell-based
MDR [4] = assay: Inhibition of MDR in human KB-C4 cells assessed as increase of vinblastine accumulation after 1 hr relative to control; assay type: cell-based
[5] = Inhibition of vinblastine binding to human KB-C4 cells; assay type: functional, cell-based
[6] = Induction of apoptosis in malignant lymphocyte after 48 hrs; assay type: functional
[7] = Potentiation of colchicine-induced cytotoxicity in human KB-C4 cells at 1 ug/mL relative to control; assay type: functional
[8] = Toxicity in subchronic oral dosed dog after 3 months; assay type: organism-based, Canis lupus familiaris; details: in vivo
[9] = Toxicity in chronic oral dosed mouse after 2 years; assay type: organism-based; details: in vivo
[10] = Toxicity in chronic oral dosed rat after 2 years; assay type: organism-based; details: in vivo
[11] = Toxicity in subchronic oral dosed rat after 3 months; assay type: organism-based; details: in vivo
[12] = Toxicity in […] oral dosed dog after 1 year; assay type: organism-based, Canis lupus familiaris; details: in vivo
[13] = Antiproliferative activity against human NCI-H929 cells assessed as growth inhibition at 0.5 uM; assay type: functional; details: read-out: GI
SNU-C1 = assay: Antiproliferative activity against human SNU-C1 cells assessed as growth inhibition at 0.5 uM; assay type: functional; details: read-out: GI
PC-3 = assay: Antiproliferative activity against human PC3 cells after 48 hrs; assay type: functional, cell-based; details: PC-3, 48 h
[14] = Antiproliferative activity against human VCaP cells; assay type: functional, cell-based

## CCC[C@H](O)[C@@]1(CC)C[C@@H](C)[C@](O)([C@]2(C)C[C@H](C)[C@@H]([C@@H](CC)C(=O)[C@@H](C)[C@@H](O)[C@H](C)[C@H]3O[C@@](O)([C@H](CC)C(=O)O)[C@@H](C)[C@H](O)[C@H]3CC)O2)O1 [INOSTAMYCIN]
[1]
  Activity: <1%
[2]
  fold change (FC): 1.2
MDR [3]
  fold change (FC): 3
MDR [4]
  fold change (FC): 4
[5]
  IC50: 0.94 µg/mL (≈ 1.34 µM)

## C[C@H](CCC(=O)O)C[C@H](C)C[C@H](C)C(=O)/C=C(\O)[C@H](C)C[C@H](C)C/C=C/[C@@H](C)[C@@H](O)[C@@H](C)[C@@H](O)C[C@@H]1CC[C@@](C)([C@H]2CC[C@@](C)([C@@H](C)O)O2)O1 [IONOMYCIN]
[6]
  IC50: 230 nM

## CCC(=O)O[C@H]([C@H](C)[C@H]1O[C@@]2(CC[C@@](C)([C@H]3CC[C@@](C)([C@@H]4O[C@@H]([C@H]5O[C@@](O)(CO)[C@H](C)C[C@@H]5C)C[C@@H]4C)O3)O2)C[C@H](O)[C@H]1C)[C@H](C)C(=O)O [LAIDLOMYCIN]
[7]
  fold change (FC): 700

## CC[C@@]1([C@@H]2O[C@@H]([C@H]3O[C@@](O)(CO)[C@H](C)C[C@@H]3C)C[C@@H]2C)CC[C@H]([C@]2(C)CC[C@]3(C[C@H](O)[C@@H](C)[C@@H]([C@@H](C)[C@@H](OC)[C@H](C)C(=O)O)O3)O2)O1 [MONENSIN]
[8]
  NOAEL at 3 months: 5 mg/kg/day
[9]
  NOAEL at 2 years: 1.3 mg/kg/day
[10]
  NOAEL at 2 years: 1.4 mg/kg/day
[11]
  NOAEL at 3 months: 2 mg/kg
[12]
  NOAEL at 1 year: 1.25 mg/kg/day
[13]
  inhibition of growth at 0.5 µM: 50%
SNU-C1
  inhibition of growth at 0.5 µM: 50%

## CC[C@@H](C(=O)[C@@H](C)[C@@H](O)[C@H](C)[C@@H]1O[C@@H]([C@@H](CC)C(=O)O)CC[C@@H]1C)[C@H]1O[C@]2(C=C[C@@H](O)[C@]3(CC[C@@](C)([C@H]4CC[C@](O)(CC)[C@H](C)O4)O3)O2)[C@H](C)C[C@@H]1C [SALINOMYCIN]
PC-3
  EC50: > 1000 nM
[14]
  EC50: 380 nM
